From patent publication US12150775B2, “Treatment of a disease of the gastrointestinal tract with an immunosuppressant” (BIORA THERAPEUTICS, INC., priority 2016, dated 2024)

Assay: Tissue, plasma and GI content pharmacokinetics of tacrolimus, oral vs intra-cecal ingestible device delivery
Type: in vivo, Yorkshire-Cross farm swine
Settings: swine; intra-cecally vs orally administered, 12 hours post-dose (FIG. 76)
Description: No further randomization procedure was employed.
Animals in Group 1 received an ingestible device containing 0.8 mL of vehicle solution (80% alcohol, 20% HCO-60). Animals in Group 2 received orally […] liquid formulation of tacrolimus at 4 mg/0.8 mL per animal (Prograf. 5 mg/mL). Animals in Group 3 received intra-cecally an ingestible device containing tacrolimus at 1 mg in 0.8 mL per ingestible device. Animals in Group 4 received intra-cecally an ingestible device containing tacrolimus at 2 mg in 0.8 mL per ingestible device. Animals in Group 5 received intra-cecally an ingestible device containing tacrolimus at 4 mg in 0.8 mL per ingestible device. […]
Approximately 200˜400 mg of rectal content were collected, if available, with a fecal swab (Copan Diagnostics Nylon Flocked Dry Swabs, 502CS01). The fecal swab was pre-weighed and weighed after collection in the collection tube (Sterile Tube and Cap No Media, PFPM913S), and the sample weight was recorded. […]
For tissue necropsy, small intestine fluid and cecal fluid were collected separately from all the animals into two separate square plastic bottles, and stored at −20° C. The length and diameter of the cecum and the colon was measured from one animal in each group and recorded for reference. […] All samples were weighed, and the tissue sample weights were recorded. […]

For C=CC[C@@H]1/C=C(\C)C[C@H](C)C[C@H](OC)[C@H]2O[C@@](O)(C(=O)C(=O)N3CCCC[C@H]3C(=O)O[C@H](/C(C)=C/[C@@H]3CC[C@@H](O)[C@H](OC)C3)[C@H](C)[C@@H](O)CC1=O)[C@H](C)C[C@@H]2OC [tacrolimus, Tacrolimus], the “mean concentration of tacrolimus in the cecum tissue” value was “higher” and the “mean concentration of tacrolimus in the proximate colon tissue” value was “higher”.
